# In patent US11446287B2, “Compounds and methods for EP300 or CBP modulation and indications therefor” (Opna Immuno-Oncology SA, priority 2019, dated 2022):
# Molecular target: T1, Recombinant human CBP containing the bromodomain (CBP-BD (1043-1159)) (Homo sapiens, UniProt Q92793)
# T1 construct: Recombinant human CBP bromodomain (CBP-BD (1043-1159)); made in house; host or cells: E. coli BL21-CodonPlus (DE3), modified pET vector
# Test: CBP Alphascreen binding assay
# Details: read-out: CREBBP (CBP) IC50
# How it was run: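 Buffer: 50 mM HEPES pH 7.5, 50 mM NaCl, 0.01% BSA, 0.01% Triton X-100, 2 mM DTT. The signal was normalised to plate controls and fitted with a four-parameter curve to give IC50.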
# T1 sequence (Q92793 1081-1197): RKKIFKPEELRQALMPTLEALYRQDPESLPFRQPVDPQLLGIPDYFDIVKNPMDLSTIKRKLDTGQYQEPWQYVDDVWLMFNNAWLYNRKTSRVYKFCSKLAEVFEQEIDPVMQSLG
row,Structure (SMILES),IC50 [nM]
1,"COc1cc(C(=O)O)cc(OCC2CC2)c1-c1cn([C@@H](C)c2ccccn2)c2ncc(-c3c(C)noc3C)cc12 [P-0152, (S)-3-(cyclopropylmethoxy)-4-(5-(3,5-dimethylisoxazol-4-yl)-1-(1-(pyridin-2-yl)ethyl)-1H-pyrrolo[2,3-b]pyridin-3-yl)-5-methoxybenzoic acid]",0.1 to 1000
2,"COc1cc(C(=O)O)cc(OCC(F)(F)F)c1-c1cn([C@@H](C)c2ccccn2)c2ncc(-c3c(C)noc3C)cc12 [P-0153, (S)-4-(5-(3,5-dimethylisoxazol-4-yl)-1-(1-(pyridin-2-yl)ethyl)-1H-pyrrolo[2,3-b]pyridin-3-yl)-3-methoxy-5-(2,2,2-trifluoroethoxy)benzoic acid]",0.1 to 1000
3,"Cc1noc(C)c1-c1cnc2c(-c3ccc(C(=O)O)cc3)c(C(F)(F)F)n([C@@H](C)c3ccccn3)c2c1 [P-0154, (S)-4-(6-(3,5-dimethylisoxazol-4-yl)-1-(1-(pyridin-2-yl)ethyl)-2-(trifluoromethyl)-1H-pyrrolo[3,2-b]pyridin-3-yl)benzoic acid]",0.1 to 1000
4,"Cc1noc(C)c1-c1cnc2c(-c3ccccc3Cl)cn(C(C)(c3ccccn3)c3ccccn3)c2c1 [P-0155, 4-(3-(2-chloropheny1)-1-(1,1-di(pyridin-2-yl)ethyl)-1H-pyrrolo[3,2-b]pyridin-6-yl)-3,5-dimethylisoxazole]",0.1 to 1000
5,"Cc1noc(C)c1-c1cnc2c(c1)c(-c1ccc(C(=O)O)cc1OC(F)(F)F)cn2C(C1CC1)C1CC1 [P-0156, 4-(1-(dicyclopropylmethyl)-5-(3,5-dimethylisoxazol-4-yl)-1H-pyrrolo[2,3-b]pyridin-3-yl)-3-(trifluoromethoxy)benzoic acid]",0.1 to 1000
6,"Cc1noc(C)c1-c1cnc2c(c1)c(-c1ccc(C(=O)O)cc1OC(F)(F)F)cn2CC1CC(F)(F)C1 [P-0157, 4-(1-((3,3-difluorocyclobutyl)methyl)-5-(3,5-dimethylisoxazol-4-yl)-1H-pyrrolo[2,3-b]pyridin-3-yl)-3-(trifluoromethoxy)benzoic acid]",0.1 to 1000
7,"Cc1noc(C)c1-c1cnc2c(c1)c(-c1ccc(C(=O)O)cc1OC(F)(F)F)cn2-c1ccccn1 [P-0158, 4-(5-(3,5-dimethylisoxazol-4-yl)-1-(pyridin-2-yl)-1H-pyrrolo[2,3-b]pyridin-3-yl)-3-(trifluoromethoxy)benzoic acid]",0.1 to 1000
8,"Cc1noc(C)c1-c1cnc2c(Cc3ccccn3)cn(-c3ccc(C(=O)O)cc3OC(F)(F)F)c2c1 [P-0159, 4-(6-(3,5-dimethylisoxazol-4-yl)-3-(pyridin-2-ylmethyl)-1H-pyrrolo[3,2-b]pyridin-1-yl)-3-(trifluoromethoxy)benzoic acid]",0.1 to 1000
9,"Cc1noc(C)c1-c1cnc2c(-c3cnn(C)c3)c(C(F)(F)F)n([C@@H](C)c3ccccn3)c2c1 [P-0160, (S)-3,5-dimethyl-4-(3-(1-methyl-1H-pyrazol-4-yl)-1-(1-(pyridin-2-yl)ethyl)-2-(trifluoromethyl)-1H-pyrrolo[3,2-b]pyridin-6-yl)isoxazole]",0.1 to 1000
10,"Cc1noc(C)c1-c1cnc2c(-c3cccc(CC(=O)O)c3)c(C(F)(F)F)n([C@@H](C)c3ccccn3)c2c1 [P-0161, (S)-2-(3-(6-(3,5-dimethylisoxazol-4-yl)-1-(1-(pyridin-2-yl)ethyl)-2-(trifluoromethyl)-1H-pyrrolo[3,2-b]pyridin-3-yl)phenyl)acetic acid]",0.1 to 1000
11,"Cc1noc(C)c1-c1cnc2c(-c3cccc(C(=O)O)c3)c(C(F)(F)F)n([C@@H](C)c3ccccn3)c2c1 [P-0162, (S)-3-(6-(3,5-dimethylisoxazol-4-yl)-1-(1-(pyridin-2-yl)ethyl)-2-(trifluoromethyl)-1H-pyrrolo[3,2-b]pyridin-3-yl)benzoic acid]",0.1 to 1000
12,"Cc1noc(C)c1-c1cnc2c(C(O)(C3CC3)C3CC3)cn(-c3ccc(C(=O)O)cc3OC(F)(F)F)c2c1 [P-0163, 4-(3-(dicyclopropyl(hydroxy)methyl)-6-(3,5-dimethylisoxazol-4-yl)-1H-pyrrolo[3,2-b]pyridin-1-yl)-3-(trifluoromethoxy)benzoic acid]",0.1 to 1000
